Patent US5451600A, “Substituted tetrahydrobenzopyrrolylfuranoic acid derivatives as phospholipase A2 inhibitors” (Hoffmann-La Roche Inc., priority 1994, dated 1995)
pIC50: −log10 of the molar value.

What was measured:
[1] = target: T1, PLA2 activity in human synovial fluid (HSF) (Homo sapiens, UniProt P14555); assay: Phospholipase A2 (PLA2) enzymatic assay - % Inhibition of HSF-PLA2; format: biochemical; settings: for inhibition at 5 µM: read-out: % Inhib. of HSF-PLA2 at 5 μM
T1 construct: Synovial fluid was obtained from patients with rheumatoid arthritis; from tissue; host or cells: cell-depleted synovial fluid of patients with rheumatoid arthritis
T1 sequence (P14555 21-144): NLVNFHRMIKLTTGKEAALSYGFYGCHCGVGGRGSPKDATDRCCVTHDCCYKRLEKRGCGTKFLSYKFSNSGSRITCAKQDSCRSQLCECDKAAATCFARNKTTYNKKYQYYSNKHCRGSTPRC
Excerpt: 1, Phospholipase A2 (PLA2) enzymatic assay - % Inhibition of HSF-PLA2
PLA2 assay procedure described by Hope et al., Inflammation 14:543-559 (1.990) was utilized to measure the inhibitory activity of the invention (inhibitor) against PLA2 activity in human synovial fluid (HSF). Synovial fluid was obtained from patients with rheumatoid arthritis. The assay procedure measured the release of [1-^14 C]oleic acid from the sn-2 position of phospholipids in autoclaved Escherichia coli previously grown in media containing [1-^14 C]oleic acid. The standard assay reaction conditions included 1×10^9 Escherichia coil (10,000 dpm ^14 C), 0.15% (v/v) cell-depleted HSF, (which was equivalent to 66 μg protein/mL) 2 mM CaCl2, 150 mM NaCl, 50 mM sodium (N-[2-hydroxyethyl] piperazine-N'-[2-ethanesulfonate]) (HEPES) buffer (pH 7.3), 1% dimethyl sulfoxide (DMSO) and various concentrations of inhibitor in a total volume of 0.5 ml. Inhibitors were dissolved in DMSO and added. The reaction was initiated by addition of HSF, incubated for 30 min at 37° C. and then stopped by addition of 2.5 ml of chloroform/methanol (1:1.5, v/v). The total lipids were extracted by the method of Bligh, E. G., and Dyer, W. J, Can. J. Biochem. Physiol. 37:911-917 (1959) by the further addition of 0.5 mL of chloroform and 1 mL of water with mixing. The lipid extract was redissolved in chloroform/methanol (9:1, v/v) containing 10 ug of carrier oleic acid. The oleic acid was separated from phospholipids by thin layer chromatography using gel-impregnated glass fiber sheets (ITLC type SG sheets). The sheets were preactivated by heating at 110° C. for 30 min. The lipid extract was applied to the sheets and chromatographed for 6 minutes, using hexane/acetic acid (100:1, v/v). The positions on the sheet containing oleic acid and phospholipids were visualized by exposure to iodine vapor and located by comparison to standards. The oleic acid and phospholipid zones were cut from the sheets, shaken individually with 2 ml of ethanol/water (80:20, v/v) and 15 ml of Aquasol, then counted for [^14 C] radioactivity (dpm). PLA2 activity, expressed as percent hydrolysis, was calculated from the formula: [formula] and was corrected for nonenzymatic hydrolysis of the substrate. Percent inhibition due to the presence of drug was calculated from the formula: [formula]
When various concentrations of a Compound of Formula I were tested, the percent inhibition at each concentration was plotted as log concentration (abscissa) versus percent inhibition (ordinate) and the IC50 was determined from this plot.

cellular PLA2 = assay: Inhibition of Cellular Phospholipase A2 (A23187-stimulated macrophages); format: cell-based; settings: 5 μM; rat peritoneal macrophages, A-23187 stimulated
Description: II. Inhibition of Cellular Phospholipase A2. - % Inhibition of Cellular PLA2
Resident macrophages were obtained from rats by peritoneal lavage with phosphate buffered saline minus Ca2^++ and Mg2^++ (PBS). Cells were washed 3 times with PBS and resuspended in Dulbecco's Modified Eagle's Medium (GiBco) containing L-glutamine low D-glucose (1000 mg/L), and sodium pyruvate (110 mg/L), supplemented with 10% fetal calf serum. Cells were counted on a Coulter ZBI cell counter and then resuspended to a concentration of 6×10^6 cells/1.5 ml. The cell suspension (1.5 ml culture dishes (35 mm) and the cells were allowed to adhere to the dishes for 90 minutes at 37° C. Dishes were washed 3 times with PBS to remove non-adherent cells. [^14 C]arachidonic acid ([^14 C]-AA, approximately […], were added to the cells (1 uCi/dish) and allowed to incorporate for 120 minutes. Medium containing unincorporated [^14 C]-AA was removed and the cell layer was again washed 3 times with PBS. Inhibitors were dissolved in dimethylsulfoxide (DMSO) and added directly to the macrophages in Hank's Balanced Salt Solution (GiBco) phosphate-buffered, pH 7.4) to obtain the desired final concentration. Cells were incubated with drug or DMSO for 30 minutes at 37° C. and were then stimulated with calcium-ionophore A-23187 (0.75 uM) for 20 minutes. The extracellular medium was removed and the [^14 C] radioactivity released into this medium from AA metabolism was measured by liquid scintillation spectroscopy. The amounts of LTB4 and PGE2 were measured in the extracellular medium by radio immunoassay with specific antisera. The effects of inhibitor were measured as percent inhibition of A23187- stimulated AA metabolite release (^14 C release, PGE2 and LTB4 production) (control) which were calculated from the formula: [formula] IC50 's were calculated as described in the HSF-PLA2 assay.

[2] = system: carrageenan-induced paw edema in rats; assay: Carrageenan-induced paw edema model of inflammation; format: in vivo; settings: 2 hr, rat, read-out: Carrageenan ind. paw edema % Inhib. 2 hr; for inhibition in vivo at 20 mg/kg: 20 mg/Kg ip; for inhibition in vivo at 100 mg/kg: 100 mg/Kg po; for inhibition in vivo at 10 mg/kg: 10 mg/Kg ip

## CCCCCCCCn1c2c(c3cc(/C=C/c4ccc(C(=O)O)o4)ccc31)C(C)(C)CC(C)(C)C2 [Example 46, (E)-5-[2-(1,2,3,4-tetrahydro-2,2,4,4-tetramethyl-9-octyl-9H-dibenzo[b,d]pyrrol-6-yl)ethenyl]-2-furancarboxylic acid]
[1]
  inhibition at 5 µM: 75%
Cellular PLA2
  % Inhib. of cellular PLA2 at 5 μM: 48%

## CCCCCCCCn1c2c(c3cc(/C(C)=C/c4ccc(C(=O)O)o4)ccc31)CCCC2 [Example 47, (E)-5-[2-methyl-2-(1,2,3,4-tetrahydro-9-octyl-9H-dibenzo[b,d]pyrrol-6-yl)ethenyl]-2-furancarboxylic acid]
[2]
  inhibition in vivo at 20 mg/kg: 70%
  inhibition in vivo at 100 mg/kg: 49%
[1]
  inhibition at 5 µM: 59%
Cellular PLA2
  % Inhib. of cellular PLA2 at 5 μM: 77%

## CCCCCCCCn1c2c(c3cc(CCc4ccc(C(=O)O)o4)ccc31)CCCC2 [Example 55, 5-[2-(1,2,3,4-tetrahydro-9-octyl-9H-dibenzo[b,d]pyrrol-6-yl)ethyl]-2-furancarboxylic acid]
[2]
  inhibition in vivo at 10 mg/kg: 59%
  inhibition in vivo at 100 mg/kg: 49%
[1]
  inhibition at 5 µM: 73%
Cellular PLA2
  % Inhib. of cellular PLA2 at 5 μM: 91%

## CCCCCCCCn1c2c(c3cc(/C=C(\C)c4ccc(C(=O)O)o4)ccc31)CCCC2 [Example 50, (E)-5-[1-methyl-2-(1,2,3,4-tetrahydro-9-octyl-9H-dibenzo[b,d]-pyrrol-6-yl)ethenyl]-2-furancarboxylic acid]
[2]
  inhibition in vivo at 20 mg/kg: 56%
[1]
  inhibition at 5 µM: 47%
Cellular PLA2
  % Inhib. of cellular PLA2 at 5 μM: 79%

## CCCCCCCCn1c2c(c3ccc(Oc4ccc(C(=O)O)o4)cc31)CCCC2 [Example 133, 5-[(1,2,3,4-tetrahydro-9-octyl-9H-dibenzo[b,d]pyrrol-7-yl)oxy]-2-furancarboxylic acid]
[2]
  inhibition in vivo at 100 mg/kg: 58%
[1]
  inhibition at 5 µM: 31%
Cellular PLA2
  % Inhib. of cellular PLA2 at 5 μM: 85%

## CCCCCCCCn1c2c(c3cc(Oc4ccc(C(=O)O)o4)ccc31)CC(C)(C)CC2 [Example 135, 5-[(1,2,3,4-tetrahydro-3,3-dimethyl-9-octyl-9H-dibenzo[b,d]pyrrol-6-yl)oxy]-2-furancarboxylic acid]
[1]
  inhibition at 5 µM: 66%
Cellular PLA2
  % Inhib. of cellular PLA2 at 5 μM: 90%

## O=C(O)c1ccc(Oc2ccc3c(c2)c2c(n3Cc3ccccc3F)CCCC2)o1 [Example 148, 5-[[1,2,3,4-tetrahydro-9-[(2-fluorophenyl)methyl]-9H-dibenzo[b,d]pyrrol-6-yl]oxy]-2-furancarboxylic acid]
[1]
  inhibition at 5 µM: 65%
Cellular PLA2
  % Inhib. of cellular PLA2 at 5 μM: 97%

## CCCCCCCCn1c2c(c3cc(C(=O)c4ccc(C(=O)O)o4)ccc31)CCCC2 [Example 157, 5-[(1,2,3,4-tetrahydro-9-octyl-9H-dibenzo[b,d]pyrrol-6-yl)carbonyl]-2-furancarboxylic acid]
[2]
  inhibition in vivo at 20 mg/kg: 41%
  inhibition in vivo at 100 mg/kg: 44%
[1]
  inhibition at 5 µM: 40%
Cellular PLA2
  % Inhib. of cellular PLA2 at 5 μM: 68%

## CCCCCCCCn1c2c(c3cc(/C(C)=C/c4ccc(C(=O)O)o4)ccc31)C(C)(C)CC(C)(C)C2 [Example 49, (E)-5-[2-methyl-2-(1,2,3,4-tetrahydro-2,2,4,4-tetramethyl-9-octyl-9H-dibenzo[b,d]pyrrol-6yl)ethenyl]-2-furancarboxylic acid]
[1]
  inhibition at 5 µM: 83%
Cellular PLA2
  % Inhib. of cellular PLA2 at 5 μM: 15%

## CCCCCCCCn1c2c(c3cc(/C(C)=C/c4ccc(C(=O)O)o4)ccc31)CCCC2(C)C [Example 48, (E)-5-[2-methyl-2-(1,2,3,4-tetrahydro-1,1-dimethyl-9-octyl-9H-dibenzo[b,d]-pyrrol-6yl)ethenyl]-2-furancarboxylic acid]
[2]
  inhibition in vivo at 10 mg/kg: 58%
[1]
  inhibition at 5 µM: 75%
Cellular PLA2
  % Inhib. of cellular PLA2 at 5 μM: 62%

## CCCCCCCCCCCCn1c2c(c3cc(Oc4ccc(C(=O)O)o4)ccc31)CCCC2 [Example 141, 5-[(1,2,3,4-tetrahydro-9-dodecyl-9H-dibenzo[b,d]pyrrol-6-yl)oxy]-2-furancarboxylic acid]
[1]
  inhibition at 5 µM: 66%
Cellular PLA2
  % Inhib. of cellular PLA2 at 5 μM: 74%

## Cc1cc(C)c(Cn2c3c(c4cc(Oc5ccc(C(=O)O)o5)ccc42)CCCC3)c(C)c1 [Example 152, 5-[[1,2,3,4-tetrahydro-9-[(2,4,6-trimethylphenyl)methyl]-9H-dibenzo[b,d]pyrrol-6-yl]oxy]-2-furancarboxylic acid]
[1]; 10 μM (footnote a), read-out: % Inhib. of HSF-PLA2 (a: % Inhibition at 10 μM)
  inhibition at 10 µM: 72%
Cellular PLA2
  % Inhib. of cellular PLA2 at 5 μM: 89%

## Cn1c2c(c3cc(Oc4ccc(C(=O)O)o4)ccc31)CCCC2 [Example 138, 5-[(1,2,3,4-tetrahydro-9-methyl-9H-dibenzo[b,d]pyrrol-6-yl)oxy]-2-furancarboxylic acid]
[1]
  inhibition at 5 µM: 39%
Cellular PLA2
  % Inhib. of cellular PLA2 at 5 μM: 13%

## Cc1ccc(Cn2c3c(c4cc(Oc5ccc(C(=O)O)o5)ccc42)CCCC3)cc1 [Example 151, 5-[[1,2,3,4-tetrahydro-9-[(4-methylphenyl)methyl]-9H-dibenzo[b,d]pyrrol-6-yl]oxy]-2-furancarboxylic acid]
[1]
  inhibition at 5 µM: 72%
Cellular PLA2
  % Inhib. of cellular PLA2 at 5 μM: 93%

## CCCCCCCn1c2c(c3cc(Oc4ccc(C(=O)O)o4)ccc31)CCCC2 [Example 140, 5-[(1,2,3,4-tetrahydro-9-heptyl-9H-dibenzo[b,d]pyrrol-6-yl)oxy]-2-furancarboxylic acid]
[1]
  inhibition at 5 µM: 55%
Cellular PLA2
  % Inhib. of cellular PLA2 at 5 μM: 97%

## CCCCCCCc1ccc(Cn2c3c(c4cc(Oc5ccc(C(=O)O)o5)ccc42)CCCC3)cc1 [Example 143, 5-[[1,2,3,4-tetrahydro-9-(4-heptylphenyl)methyl-9H-dibenzo[b,d]pyrrol-6-yl]oxy]-2-furancarboxylic acid]
[1]
  inhibition at 5 µM: 76%
Cellular PLA2
  % Inhib. of cellular PLA2 at 5 μM: 65%

## O=C(O)c1ccc(Oc2ccc3c(c2)c2c(n3Cc3ccc(Br)cc3)CCCC2)o1 [Example 137, 5-[[1,2,3,4-tetrahydro-9-(4-bromophenyl)methyl-9H-dibenzo[b,d]pyrrol-6-yl]oxy]-2-furancarboxylic acid]
[1]
  inhibition at 5 µM: 36%
Cellular PLA2
  % Inhib. of cellular PLA2 at 5 μM: 100%

## CCCCn1c2c(c3cc(Oc4ccc(C(=O)O)o4)ccc31)CCCC2 [Example 136, 5-[(1,2,3,4-tetrahydro-9-butyl-9H-dibenzo[b,d]pyrrol-6-yl)oxy]-2-furancarboxylic acid]
[1]
  inhibition at 5 µM: 12%
Cellular PLA2
  % Inhib. of cellular PLA2 at 5 μM: 85%

## CCCCCCCCn1c2c(c3cc(Oc4ccc(C(=O)O)o4)ccc31)CCCC2c1cccc(OC)c1 (racemic) [Example 153, rac-5-[[1,2,3,4-tetrahydro-1-(3-methoxyphenyl)-9-octyl-9H-dibenzo[b,d]pyrrol-6-yl]oxy]-2-furancarboxylic acid]
[1]; human synovial fluid PLA2, 30 min at 37° C., pH 7.3
  pIC50: 5.62
[1]
  inhibition at 5 µM: 63%
Cellular PLA2
  % Inhib. of cellular PLA2 at 5 μM: 74%
